Consider twelve compounds from ChEMBL document CHEMBL1126704, “Dibenzoxepin derivatives: thromboxane A2 synthase inhibition and thromboxane A2 receptor antagonism combined in one molecule” (J Med Chem, 1993).

What is called Ki is a measure of affinity in units of concentration, obtained from inhibition or displacement. Lower therefore signals tighter binding. In general, IC50 refers to the concentration needed to halve the response being measured. A low value points to greater potency. For orientation: inhibition means the drop in the measured response relative to a control, in per cent.

Test [1] is described as follows: Tested for specific binding of radioligand [3H]U-46619 to thromboxane A2/prostaglandin H2 receptor in guinea pig washed platelets. Details: species or system Cavia porcellus.
Test [2] is described as follows: Tested for specific binding of radioligand [3H]U-46619 to thromboxane A2 /prostaglandin H2 receptor in guinea pig washed platelets. Details: species or system Cavia porcellus.
For test [3], the species on record is Homo sapiens. In words: In vitro inhibition of U-46619 (3 uM) -induced human platelet aggregation. The test is classed as functional.
The subject of test [4] is Rattus norvegicus. In words: Tested for the effect at 30 mg/kg through peroral route on rat blood urea nitrogen, 24 hr after reperfusion; (p<0.01). The test is classed as functional. The settings on record: route oral.
For test [5], the system named is Rattus norvegicus. In words: Tested for the effect at 30 mg/kg through peroral route on rat blood urea nitrogen, 48 hr after reperfusion; (p<0.05). The test is classed as functional. The note with it: route oral.
The test system of test [6] is Rattus norvegicus. Put plainly: Tested for the effect at 30 mg/kg through peroral route on rat serum creatinine, 24 hr after reperfusion; (p<0.05). The class given is functional, organism-based. Also on record: dose 30 mg/kg.
The subject of test [7] is Rattus norvegicus. Put plainly: Tested for the effect at 30 mg/kg through peroral route on rat serum creatinine, 48 hr after reperfusion. The test is classed as functional, organism-based. Details: dose 30 mg/kg.
For test [8], the species on record is Cavia porcellus. In words: Tested for inhibition against thromboxane A2/prostaglandin H2 receptor in guinea pig washed platelets using radioligand [3H]U-46619 at 100 uM.
In test [9] the test system is Thromboxane-A synthase (Bos taurus). Put plainly: Tested against TXA2 synthase in bovine platelet microsome at 10 uM.
For test [10], the species on record is Cavia porcellus. Put plainly: Tested for inhibition against thromboxane A2/prostaglandin H2 receptor in guinea pig washed platelets using radioligand [3H]U-46619 at 1 uM.

On to `O=C(O)c1ccc2c(c1)/C(=C/Cn1ccnc1)c1ccccc1CO2`, for which, in test [1], the affinity corresponds to a Ki of 600 nM.

`O=C(O)c1ccc2c(c1)/C(=C\Cn1ccnc1)c1ccccc1CO2`: affinity in test [1] was put at a Ki of 4500 nM.

`O=C(O)c1ccc2c(c1)/C(=N\Cc1cccnc1)c1ccccc1CO2` came in with a Ki in [2] of 120 nM.

In test [1], `O=C(O)c1ccc2c(c1)/C(=C\Cc1cccnc1)c1ccccc1CO2` came in with a Ki of 180 nM. Moreover, in test [3], inhibition was half-maximal at 9600 nM (IC50). Besides, the figures for the Blood urea nitrogen in [4] and in [5] were 34.18 and 30.37, respectively. For the same compound, the Serum creatinine in [6] was 1.48; in test [7] it was 1.16.

`C/C(=C\c1ccc(Cc2cccnc2)cc1)C(=O)O`: the inhibition in test [8] is 14%.

`O=C(O)c1ccc2c(c1)C(SCc1ccccc1)c1ccccc1CO2` (racemic): the Ki in test [1] was 40 nM. Besides, in [9], the inhibition is 19%.

Compound `O=C(O)c1ccc2c(c1)C(SCc1cccnc1)c1ccccc1CO2` (racemic) returned an inhibitory constant (Ki) in test [1] of 250 nM.

`O=C(O)c1ccc2c(c1)C(NCc1ccccc1)c1ccccc1CO2` (racemic): the inhibition in test [10] is 6%; in [9] it was -4%.

Turning to `O=C(O)c1ccc2c(c1)C(NCc1cccnc1)c1ccccc1CO2` (racemic), the inhibition in test [10] stood at 12%.

As to `O=C(O)c1ccc2c(c1)C(SCc1cccnc1)c1ccccc1CO2` (single isomer, unassigned; (+)), in test [1], affinity was put at a Ki of 8200 nM.

With `O=C(O)c1ccc2c(c1)C(SCc1cccnc1)c1ccccc1CO2` (stereo in doubt; (-)-3), the affinity in test [1], expressed as Ki, was 85 nM.

As to `O=C(O)CCCC/C=C(\c1ccccc1)c1cccnc1` [(E)-ISBOGREL], the Ki in test [2] is 2700 nM. The same compound registered a 50% inhibitory concentration (IC50) in test [3] of 280000 nM. For the same compound, the Blood urea nitrogen in test [4] worked out at 58.07; in test [5], 48.38. Moreover, the Serum creatinine in test [6] was determined as 2.07; in test [7], 2.02.
